Results from PMC3106998, “The novel sigma-2 receptor ligand SW43 stabilizes pancreas cancer progression in combination with gemcitabine” (2010).

Target: T1, sigma-2 receptor (Mus musculus, UniProt Q8VD00)
T1 construct: gene Tmem97; Panc02 tumor membrane homogenates
T1 sequence (Q8VD00 1-176): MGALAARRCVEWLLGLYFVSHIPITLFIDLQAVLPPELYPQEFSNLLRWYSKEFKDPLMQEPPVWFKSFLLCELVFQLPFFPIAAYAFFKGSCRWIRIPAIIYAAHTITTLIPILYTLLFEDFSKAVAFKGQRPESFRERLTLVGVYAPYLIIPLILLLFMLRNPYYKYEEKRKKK
Test: radioligand competition with […]-ISO-2 in membrane homogenates
Format: binding

Which IC50 does the source give for `COc1ccc(C)cc1NC(=O)OC1CC2CCCC(C1)N2CCCCCCN` (centres unmarked) [SV119] here?
The IC50 was 7.8 ± 1.7 nM.

For `COc1ccc(C)cc1NC(=O)OC1CC2CCCC(C1)N2CCCCCCCCCCN` (centres unmarked) [SW43], which IC50 is on record?
Its IC50 is 18 ± 2.1 nM.
